Results taken from ChEMBL document CHEMBL4483862, “Open-source discovery of chemical leads for next-generation chemoprotective antimalarials” (2018).

Tested on: Plasmodium berghei
Assay: Luciferase/luciferin-expressing antifolate-resistant parasites were used to infect a culture of HepG2 cells that were pre-incubated with compounds. Infected hepatocytes emit light due to the luciferase reaction. Assay results are presented as the percent inhibition of light emission compared to control. […]
Assay type: functional
Details: sporozoite; for IC90: read-out: LUCIFERASE INFECTION ASSAY - IC90

| Structure (SMILES) | IC90 | further results |
| --- | --- | --- |
| Oc1c(Cl)cc(Cl)cc1/C=C/c1ccc2cccc(O)c2n1 | 7.78 µM | IC50 (HEPG2TOX_HILL_SLOPE 10.3, HEPG2TOX_R_SQUARED 0.191, PBLUC_HILL_SLOPE 3.13, PBLUC_R_SQUARED 0.48, read-out: LUCIFERASE INFECTION ASSAY - IC50): 3.86 µM |
| CC(C)(C)c1ccccc1N1C(=O)C=CC1=O | 6.59 µM | IC50 (HEPG2TOX_HILL_SLOPE 10.3, HEPG2TOX_R_SQUARED 0.72, PBLUC_HILL_SLOPE 8.87, PBLUC_R_SQUARED 0.496, read-out: LUCIFERASE INFECTION ASSAY - IC50): 5.14 µM |
| OCc1ccc(-c2cnc3ccc(-c4cncnc4)nn23)cc1 | 3.81 µM | IC50 (HEPG2TOX_HILL_SLOPE 10.3, HEPG2TOX_R_SQUARED 0.526, PBLUC_HILL_SLOPE 13.6, PBLUC_R_SQUARED 0.613, read-out: LUCIFERASE INFECTION ASSAY - IC50): 3.24 µM |
| COc1ccc(Nc2nccc3[nH]c(-c4cccc(F)c4)cc23)cc1 | 3.55 µM | IC50 (HEPG2TOX_HILL_SLOPE 10.4, HEPG2TOX_R_SQUARED 0.0549, PBLUC_HILL_SLOPE 2.88, PBLUC_R_SQUARED 0.623, read-out: LUCIFERASE INFECTION ASSAY - IC50): 1.66 µM |
| COc1cc(Nc2nc(C(F)(F)F)nc3ccccc23)cc(OC)c1OC | > 10 µM | IC50 (HEPG2TOX_HILL_SLOPE 10.4, HEPG2TOX_R_SQUARED 0.414, PBLUC_HILL_SLOPE 1.58, PBLUC_R_SQUARED 0.452, read-out: LUCIFERASE INFECTION ASSAY - IC50): 4.12 µM |
| C=CCN(c1ccc(Cl)cc1)S(=O)(=O)c1cccc(C(=O)C(C#N)c2nc3ccccc3n2C)c1 (centres undefined) | 3.88 µM | IC50 (HEPG2TOX_HILL_SLOPE 10.3, HEPG2TOX_R_SQUARED 0.536, PBLUC_HILL_SLOPE 9.9, PBLUC_R_SQUARED 0.166, read-out: LUCIFERASE INFECTION ASSAY - IC50): 3.1 µM |
| CN(C)c1cc(CNC(=O)c2cc3c(F)cccc3s2)ccn1 | 7.57 µM | IC50 (HEPG2TOX_HILL_SLOPE 10.4, HEPG2TOX_R_SQUARED 0.0222, PBLUC_HILL_SLOPE 5.26, PBLUC_R_SQUARED 0.456, read-out: LUCIFERASE INFECTION ASSAY - IC50): 4.99 µM |
| Cc1noc(N)c1C(=O)OCc1cccc2cccnc12 | > 10 µM | IC50 (HEPG2TOX_HILL_SLOPE 10.3, HEPG2TOX_R_SQUARED 0.154, PBLUC_HILL_SLOPE 14, PBLUC_R_SQUARED 0.377, read-out: LUCIFERASE INFECTION ASSAY - IC50): 9.17 µM |
| CN(C)CCNC(=O)c1cccc(-c2cnc3ccc(-c4ccc(F)cc4)nn23)c1 | > 10 µM | IC50 (HEPG2TOX_HILL_SLOPE 10.3, HEPG2TOX_R_SQUARED 0.505, PBLUC_HILL_SLOPE 2.09, PBLUC_R_SQUARED 0.253, read-out: LUCIFERASE INFECTION ASSAY - IC50): 4.88 µM |
| COC(=O)c1c(NC(=O)c2ccco2)c2cc(NC(C)Cc3ccccc3F)cnc2n1C (centres undefined) | > 7.33 µM | IC50 (HEPG2TOX_HILL_SLOPE 10.3, HEPG2TOX_R_SQUARED 0.591, PBLUC_HILL_SLOPE 7.35, PBLUC_R_SQUARED 0.509, read-out: LUCIFERASE INFECTION ASSAY - IC50): 6.19 µM |
| O=C(NC1CC1)c1ccc(-c2cnc3c(NCc4ccco4)nccn23)cc1 | 3.44 µM | IC50 (HEPG2TOX_HILL_SLOPE 10.4, HEPG2TOX_R_SQUARED 0.433, PBLUC_HILL_SLOPE 17.4, PBLUC_R_SQUARED 0.253, read-out: LUCIFERASE INFECTION ASSAY - IC50): 3.03 µM |
| Cc1ccc(CCC2CCN(C(=O)CCCNC3=NS(=O)(=O)c4ccccc43)CC2)cc1 | 3.84 µM | IC50 (HEPG2TOX_HILL_SLOPE 10.3, HEPG2TOX_R_SQUARED 0.945, PBLUC_HILL_SLOPE 12.1, PBLUC_R_SQUARED 0.567, read-out: LUCIFERASE INFECTION ASSAY - IC50): 3.2 µM |
| CN(C)c1c(F)cc(C(=O)Nc2cc(C(F)(F)F)cc(C(F)(F)F)c2)cc1F | > 8 µM | IC50 (HEPG2TOX_HILL_SLOPE 10.3, HEPG2TOX_R_SQUARED 0.772, PBLUC_HILL_SLOPE 1.36, PBLUC_R_SQUARED 0.505, read-out: LUCIFERASE INFECTION ASSAY - IC50): > 8 µM |
| O=C(Nc1nonc1-c1cccs1)c1cccc(Cl)c1 | > 10.8 µM | IC50 (HEPG2TOX_HILL_SLOPE 10.4, HEPG2TOX_R_SQUARED 0.681, PBLUC_HILL_SLOPE 17.7, PBLUC_R_SQUARED 0.0482, read-out: LUCIFERASE INFECTION ASSAY - IC50): 9.87 µM |
| CC(C)C(CNc1nc(-c2ccsc2)nc2ccccc12)N1CCN(C)CC1 (centres undefined) | > 10 µM | IC50 (HEPG2TOX_HILL_SLOPE 10.4, HEPG2TOX_R_SQUARED 0.591, PBLUC_HILL_SLOPE 1.6, PBLUC_R_SQUARED 0.533, read-out: LUCIFERASE INFECTION ASSAY - IC50): 2.79 µM |
| CC(=O)c1c(C)cc(C)c(CNc2ccc(NC(=O)C3CC3)cc2C(F)(F)F)c1C | 4.59 µM | IC50 (HEPG2TOX_HILL_SLOPE 10.3, HEPG2TOX_R_SQUARED 0.233, PBLUC_HILL_SLOPE 1.48, PBLUC_R_SQUARED 0.914, read-out: LUCIFERASE INFECTION ASSAY - IC50): 1.03 µM |

| Structure (SMILES) | IC90 | further results |
| --- | --- | --- |
| COc1ccc(-c2cnc3cnc(-c4ccc(OC)nc4)cn23)cc1 | 8.79 µM | IC50 (HEPG2TOX_HILL_SLOPE 10.4, HEPG2TOX_R_SQUARED 0.778, PBLUC_HILL_SLOPE 1.98, PBLUC_R_SQUARED 0.81, read-out: LUCIFERASE INFECTION ASSAY - IC50): 2.91 µM |
| O=C(Nc1ccc(Cl)c(C(F)(F)F)c1)C(OC(=O)C12CC3CC(CC(C3)C1)C2)c1ccccc1 (centres undefined) | 9.6 µM | IC50 (HEPG2TOX_HILL_SLOPE 10.4, HEPG2TOX_R_SQUARED 0.074, PBLUC_HILL_SLOPE 15.3, PBLUC_R_SQUARED 0.511, read-out: LUCIFERASE INFECTION ASSAY - IC50): 8.31 µM |
| CN(C)c1ccc(NC(=O)CCc2nc(-c3ccc(Cl)cc3)no2)c(C#N)c1Cl | > 7.67 µM | IC50 (HEPG2TOX_HILL_SLOPE 10.4, HEPG2TOX_R_SQUARED 0.728, PBLUC_HILL_SLOPE 0.523, PBLUC_R_SQUARED 0.342, read-out: LUCIFERASE INFECTION ASSAY - IC50): > 7.67 µM |
| O=C(Nc1nc2ccc(Oc3ccccc3)cc2s1)c1ccc(S(=O)(=O)C(F)F)cc1 | > 10 µM | IC50 (HEPG2TOX_HILL_SLOPE 10.3, HEPG2TOX_R_SQUARED 0.512, read-out: LUCIFERASE INFECTION ASSAY - IC50): > 10 µM |
| Clc1ccc(Nc2nccc3c2ncn3Cc2ccccc2)cc1 | > 10 µM | IC50 (HEPG2TOX_HILL_SLOPE 10.4, HEPG2TOX_R_SQUARED 0.978, PBLUC_HILL_SLOPE 0.755, PBLUC_R_SQUARED 0.638, read-out: LUCIFERASE INFECTION ASSAY - IC50): 0.827 µM |
| C#CCOc1ccccc1/C=C1\SC(NC2CCCCC2)=NC1=O | 0.4 µM | IC50 (HEPG2TOX_HILL_SLOPE 10.3, HEPG2TOX_R_SQUARED 0.343, PBLUC_HILL_SLOPE 2.57, PBLUC_R_SQUARED 0.554, read-out: LUCIFERASE INFECTION ASSAY - IC50): 0.17 µM |
| O=C(Nc1ncccc1O)c1csc(COc2ccc(Cl)cc2)n1 | 7.89 µM | IC50 (HEPG2TOX_HILL_SLOPE 10.3, HEPG2TOX_R_SQUARED 0.899, PBLUC_HILL_SLOPE 4.56, PBLUC_R_SQUARED 0.315, read-out: LUCIFERASE INFECTION ASSAY - IC50): 4.88 µM |
| CC1CC1c1ccc(/C=C2\C(=O)Nc3cc(Cl)ccc32)o1 (centres undefined) | > 10 µM | IC50 (HEPG2TOX_HILL_SLOPE 10.3, HEPG2TOX_R_SQUARED 0.792, PBLUC_HILL_SLOPE 17.7, PBLUC_R_SQUARED 0.192, read-out: LUCIFERASE INFECTION ASSAY - IC50): 9.66 µM |
| COCCCNC(=S)Nc1cccc2ccccc12 | > 12 µM | IC50 (HEPG2TOX_HILL_SLOPE 10.4, HEPG2TOX_R_SQUARED 0.777, PBLUC_HILL_SLOPE 18.1, PBLUC_R_SQUARED 0.604, read-out: LUCIFERASE INFECTION ASSAY - IC50): 11.8 µM |
| O=[N+]([O-])c1cccc(OCC(O)CN2CCN(Cc3nc(-c4ccc(Cl)cc4)no3)CC2)c1 (centres undefined) | > 10 µM | IC50 (HEPG2TOX_HILL_SLOPE 10.3, HEPG2TOX_R_SQUARED 0.223, PBLUC_HILL_SLOPE 2.57, PBLUC_R_SQUARED 0.732, read-out: LUCIFERASE INFECTION ASSAY - IC50): 4.59 µM |
| O=C(CCc1ccco1)Nc1ccc(-n2nccn2)cc1 | > 10 µM | IC50 (HEPG2TOX_HILL_SLOPE 10.3, HEPG2TOX_R_SQUARED 0.943, PBLUC_HILL_SLOPE 1.03, PBLUC_R_SQUARED 0.655, read-out: LUCIFERASE INFECTION ASSAY - IC50): 4.85 µM |
| Cc1nnc(Oc2ccc(C#N)cc2Cl)c2ccccc12 | > 10 µM | IC50 (HEPG2TOX_HILL_SLOPE 10.4, HEPG2TOX_R_SQUARED 0.426, read-out: LUCIFERASE INFECTION ASSAY - IC50): > 10 µM |
| COc1ccc(C)cc1CCNc1cc(Cl)nc(N)n1 | > 10 µM | IC50 (HEPG2TOX_HILL_SLOPE 10.5, HEPG2TOX_R_SQUARED 0.0746, read-out: LUCIFERASE INFECTION ASSAY - IC50): > 10 µM |
| CCNC(=O)N1CCc2nc(NCc3cccc(Oc4ccccc4)c3)ncc2C1 | 3.94 µM | IC50 (HEPG2TOX_HILL_SLOPE 10.3, HEPG2TOX_R_SQUARED 0.577, PBLUC_HILL_SLOPE 136, PBLUC_R_SQUARED 0.208, read-out: LUCIFERASE INFECTION ASSAY - IC50): 3.87 µM |
| Cc1nc(COc2ccc(C(=O)Nc3nc(-c4ccccn4)cs3)cc2)no1 | 3.46 µM | IC50 (HEPG2TOX_HILL_SLOPE 10.4, HEPG2TOX_R_SQUARED 0.524, PBLUC_HILL_SLOPE 14, PBLUC_R_SQUARED 0.305, read-out: LUCIFERASE INFECTION ASSAY - IC50): 2.96 µM |
| COc1ccc(-c2c(C)nn3c(=O)cc(-c4ccccc4)[nH]c23)cc1 | 9.94 µM | IC50 (HEPG2TOX_HILL_SLOPE 10.3, HEPG2TOX_R_SQUARED 0.705, PBLUC_HILL_SLOPE 12.5, PBLUC_R_SQUARED 0.547, read-out: LUCIFERASE INFECTION ASSAY - IC50): 8.34 µM |
